Assay results as given in patent US20080221134A1, “8-ALKYNYLXANTHINES AND DERIVATIVES” (priority 2006, published 2008).

Columns and labels:
Adenosine A2A = Adenosine A2A (Homo sapiens, UniProt P29274); experiment: Functional assay (luciferase reporter), inhibition of A2A adenosine receptor; assay type: cell-based; design: expressed in transfected cells; host or cells: CHO-DUKX-CRE-A2A-19 (CHO-DUKX, vector pCineo); details: for IC50: CHO-DUKX-CRE-A2A-19 cells, 60 nM NECA, read-out: A2A AR IC50; for A2A AR Imax: Imax in % of the corresponding antagonist; for Ki: Ki=IC50/(1+agonist concentration/EC50), read-out: A2A AR Ki
Chain of Adenosine A2A (P29274 whole entry): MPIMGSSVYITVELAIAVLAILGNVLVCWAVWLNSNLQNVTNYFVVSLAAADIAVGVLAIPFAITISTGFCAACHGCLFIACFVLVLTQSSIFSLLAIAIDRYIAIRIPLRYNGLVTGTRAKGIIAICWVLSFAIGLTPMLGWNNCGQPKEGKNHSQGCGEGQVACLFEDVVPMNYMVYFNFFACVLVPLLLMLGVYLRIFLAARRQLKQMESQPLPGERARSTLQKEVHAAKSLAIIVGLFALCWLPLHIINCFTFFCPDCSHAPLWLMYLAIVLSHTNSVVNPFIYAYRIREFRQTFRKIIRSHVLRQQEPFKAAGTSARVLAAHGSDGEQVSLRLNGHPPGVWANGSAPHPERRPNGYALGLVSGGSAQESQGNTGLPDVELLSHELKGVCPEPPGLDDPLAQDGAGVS

Adenosine A1 = biological target: T1, Adenosine A1 (Homo sapiens, UniProt P30542); experiment: Functional assay (luciferase reporter), inhibition of A1 adenosine receptor; assay type: cell-based; design: expressed in transfected cells; host or cells: CHO-DUKX-SRE-Luci-A1-44 (CHO-DUKX, vector pCineo); details: for IC50: read-out: A1 AR IC50; for A1 AR Imax: Imax in % of the corresponding antagonist (CPX); for Ki: read-out: A1 AR Ki
T1 sequence (P30542 1-326): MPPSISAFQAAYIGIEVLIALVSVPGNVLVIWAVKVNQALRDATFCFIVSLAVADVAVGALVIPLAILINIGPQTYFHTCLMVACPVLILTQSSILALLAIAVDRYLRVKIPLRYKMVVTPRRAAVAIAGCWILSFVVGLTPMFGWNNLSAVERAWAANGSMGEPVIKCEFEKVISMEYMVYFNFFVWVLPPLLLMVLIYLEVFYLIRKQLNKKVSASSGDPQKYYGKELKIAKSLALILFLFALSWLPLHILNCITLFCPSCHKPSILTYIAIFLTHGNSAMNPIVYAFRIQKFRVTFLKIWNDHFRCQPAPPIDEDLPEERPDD

rats = experiment: Modified Irwin test (FOB, SAC, FU); assay type: in vivo, rat; design: key to Hypersensitivity / Temperature / Respiration / Tremor / Stereotypies / Patterns Activity / Motor Coordination / Catalepsy: +++ = very strong effect.; ++ = strong effect.; + = average effect.; 0 = no effect.; − = negative effect; details: modified Irwin test, 0.01-30 mg/kg, compressed outcome
From the text: In this study the compounds of the present invention were screened for basal behavioural, autonomic, neurological and toxicological side-effects in rats. For this purpose, a functional observational battery (FOB) in form of an Irwin test (Irwin S., Psychopharmacologia, 1968, 13, 222; 1968; Warburton D. M. Psychopharmacology, 2002, 163, 4; Haggerty G. C. et al., J. Amer. Coll. Toxicol., 1991, 10, 677; Mattsson J. L. et al., J. Amer. Coll. Toxicol., 1996, 15, 239, all references are herein incorporated by reference) modified and validated by the Test Facility was used. Each test compound was tested at eight doses (0.01, 0.03, 0.1, 0.3, 1.0, 3.0, 10.0 and 30.0 mg/kg). All compounds were dissolved in DMSO (administration volume 1 ml/kg). Each dose group included three animals. Two vehicle groups (DMSO and Labrasol) served as negative controls.
At the first day of each test week all test compound solutions necessary for the test (1-2 weeks) were prepared by means of one dilution series starting with the highest concentration. All test compounds dissolved in DMSO were administered in a volume of 1 ml/kg. DMSO-containing solutions were stored at −18° C. All solutions were melted for administration at room temperature 16-20 hours before the start of the test.
Study design and time schedule:
4-7 days: Acclimatization and handling of the animals 1 day: Test day with • (a) Four repeated functional observational battery (FOB): 30 min, 60 min, 120 min, 180 min following compound administration • (b) Short animal check (SAC): 300 min following compound administration 1 day: Follow-up observation (FU): • 24 h (1440 min) following compound administration.
In all experimental parts, an experienced ethologist used lists of predefined methods and behavioural parameters in order to rate the behaviour of the animal (see table 7 for functional observational battery (FOB), table 8 for short animal check (SAC) and table 9 for follow-up observation (FU).
A statistical evaluation of the data was performed that enabled an assessment of the compound's effects on each parameter. Dose-response relationships are not necessarily linear. It was not clear a priori whether the response would be dose-dependent or whether low, medium or high dose effects would occur. Therefore, the data were correlated against a set of different numeric models of theoretical dose-response curves. For this kind of evaluation the measurement times were not differentiated. An average value over all measurement times was calculated for each animal. This value was taken as one measurement within the observation vector. The complete set of parameters measured for the animal (each one averaged over time) formed the observation vector. Each dose was then represented by three observation vectors (3 animals per dose). The effects of all doses were compared with vehicle (DMSO) as the observation vectors for the zero dose. A common pool of 24 animals for the zero dose was used for all compounds to be tested. For each test compound the obtained values for each parameter together with values from the pool of vehicle-treated (DMSO) animals were then correlated with theoretical dose-response models (analysis profiles). Since 8 doses were be used, there were 8 models, each assuming that the maximum compound effect occurred at one of these doses. Effects of other doses were assumed to be attenuated with a linearly descending slope of the theoretical curve. Correlation values and statistical significance of regression were then calculated. An error probability of p<0.05 (two-tailed testing) was taken as significance level. Non-significant regressions were neglected. In consequence, each parameter was assessed as not affected or affected by the compound in a dose-response relationship according to type 1 (low dose effect) up to type 8 (high dose effect). Dose response is maximal for the effect with the greatest absolute correlation coefficient. […]

[1] = biological target: T2, A1-adenosine receptor human recombinant (Homo sapiens, UniProt P30542); experiment: Radioligand binding assay 1, human recombinant A1 adenosine receptor; details: [3H]CCPA
T2 construct: expressed in transfected cells
T2 sequence (P30542 1-326): T1 sequence (P30542 1-326)
Description: (§1) Rat brain preparations were used for A1- and A2A adenosine receptor (AR) and human recombinant cell samples for A1-, A2A- and A3 adenosine receptor radioligand binding studies. Affinity and selectivity was tested in displacement experiments with following radioligands: [^3H]CCPA for A1-adenosine receptors, [^3H]MSX-2 for A2A-receptors and [^3H]PSB-11 for A3-receptors. Results of these experiments are depicted in table 2b (human data) and table 2a (rat data). Radioligand binding test systems are e.g. generally described by Muller et al., Curr. Pharm. Des., 1996, 2, 501 and Weyler et al., ChemMedChem 2006, 1, 891 and references cited therein) These documents are incorporated herein by reference.

[2] = biological target: T3, A2A-adenosine receptor human recombinant (Homo sapiens, UniProt P29274); experiment: Radioligand binding assay 1, human recombinant A2A adenosine receptor; details: human recombinant, [3H]MSX-2; read-out: A2A-adenosine receptor human recombinant [3H] MSX-2 Ki
T3 construct: expressed in transfected cells
T3 sequence (P29274 whole entry): as the sequence (P29274 whole entry) above
Description: as §1

[3] = CHO-DUKX-SRE-Luci-A1-44 cells, 3.5 μM ADAC
[4] = Ki=IC50/(1+agonist concentration/EC50)

Row | Ki [1] [nM] | Ki [2] [nM] | SMILES | further results
1 |  |  | C#CCn1c(=O)c2c(nc(C#Cc3cccc(OC)c3)n2CC#C)n(C)c1=O [drawing 621] | IC50 (Adenosine A2A): 500 nM; A2A AR Imax (Adenosine A2A): 86%; Ki (Adenosine A2A): 47 nM; IC50 (Adenosine A1; [3]): 2300 nM; A1 AR Imax (Adenosine A1): 55%; Ki (Adenosine A1; [4]): 501 nM
2 |  |  | C#CCn1c(=O)c2c(nc(C#Cc3ccc(OC)c(OC)c3)n2C)n(CC)c1=O [drawing 618] | IC50 (Adenosine A2A): 200 nM; A2A AR Imax (Adenosine A2A): 97%; Ki (Adenosine A2A): 23 nM; IC50 (Adenosine A1; [3]): 3900 nM; A1 AR Imax (Adenosine A1): 49%; Ki (Adenosine A1; [4]): 854 nM
3 |  |  | C#CCn1c(=O)c2c(nc(C#Cc3ccc(OC)c(OC)c3)n2C)n(CC)c1=O [drawing 624] | Catalepsy (rats): 0; Hypersensitivity (rats): ++; Motor Coordination (rats): 0; Patterns Activity (rats): +++; Respiration (rats): +++; Stereotypies (rats): ++; Temperature (rats): +; Tremor (rats): 0
4 |  |  | C#CCn1c(=O)c2c(nc(C#Cc3cccc(OC)c3)n2C)n(C)c1=O [drawing 617] | IC50 (Adenosine A2A): 1900 nM; A2A AR Imax (Adenosine A2A): 90%; Ki (Adenosine A2A): 178 nM; A1 AR IC50 (Adenosine A1; [3]): Nosignificantactivitydetected; A1 AR Imax (Adenosine A1): Nosignificantactivitydetected; A1 AR Ki (Adenosine A1; [4]): Nosignificantactivitydetected
5 | > 1000 | 226 ± 62 | C#CCn1c(=O)c2c(nc(C#Cc3cccc(OCCO)c3)n2C)n(C)c1=O [drawing 557] | 
6 | > 1000 | 56.3 ± 26.4 | C#CCn1c(=O)c2c(nc(C#Cc3ccc(OC)c(OC)c3)n2C)n(CC2CC2)c1=O [drawing 590] | 
7 | > 1000 | 36.6 ± 8.7 | C#CCn1c(=O)c2c(nc(C#Cc3ccc(OC)c(OC)c3)n2C)n(CCC)c1=O [drawing 584] | 
8 | > 1000 | 38.2 ± 8.5 | C#CCn1c(=O)c2c(nc(C#Cc3ccc(OC)c(OC)c3)n2C)n(CC(=O)OC)c1=O [drawing 598] | 
9 | > 20000 | 51.7 ± 8.7 | C#CCn1c(=O)c2c(nc(C#Cc3ccc(OC)c(OC)c3)n2C)n(CCN(C)C)c1=O [drawing 568] | 
10 | > 1000 | 83.4 ± 26.5 | C#CCn1c(=O)c2c(nc(C#Cc3ccc(OCC)c(OCC)c3)n2C)n(CC)c1=O [drawing 573] | 
11 | > 1000 | 30.8 ± 4.9 | C#CCn1c(=O)c2c(nc(C#Cc3ccc(OC)c(OC)c3)n2C)n(CCF)c1=O [drawing 587] | 
12 | > 1000 | 14 ± 4.1 | C#CCn1c(=O)c2c(nc(C#Cc3ccc(OC)c(OC)c3)n2C)n(CC(C)O)c1=O (centres unmarked) [drawing 578] | 
13 |  |  | C#CCn1c(=O)c2c(nc(C#Cc3cccc(OC)c3)n2C)n(CCCO)c1=O [drawing 626] | Catalepsy (rats): 0; Hypersensitivity (rats): +; Motor Coordination (rats): 0; Patterns Activity (rats): +; Respiration (rats): ++; Stereotypies (rats): 0; Temperature (rats): 0; Tremor (rats): 0
14 | > 1000 | 18.4 ± 3 | C#CCn1c(=O)[nH]c2nc(C#Cc3ccc(OC)c(OC)c3)n(C)c2c1=O [drawing 563] | 
15 | > 3000 | 89.7 ± 16.1 | C#CCn1c(=O)c2c(nc(C#Cc3cccc(C)c3)n2C)n(CC)c1=O [drawing 566] | 
16 | > 1000 | 90.3 ± 13.7 | C#CCn1c(=O)c2c(nc(C#Cc3cccc(OCCN(C)C)c3)n2C)n(C)c1=O [drawing 560] | 
17 |  |  | CCCn1c(=O)c2[nH]c(C3CCCC3)nc2n(CCC)c1=O [CPX, 8-Cyclopentyl 1,3-diprophylxanthine, reference compound] | A1 AR Imax (Adenosine A1): 100%
18 | > 1000 | 103 | C#CCn1c(=O)c2c(nc(C#Cc3ccc(OC)c(OC)c3)n2C)n(Cc2cnc[nH]2)c1=O [drawing 593] | 
19 | > 1000 | 100 ± 28 | C#CCn1c(=O)c2c(nc(C#Cc3ccc(F)c(OC)c3)n2C)n(CC)c1=O [drawing 588] | 
20 | > 1000 | 738 ± 146 | C#CCn1c(=O)c2c(nc(C#Cc3ccc(Cl)c(Cl)c3)n2C)n(CC)c1=O [drawing 597] | 
21 | > 1000 | 8.4 ± 6.7 | C#CCn1c(=O)c2c(nc(C#Cc3ccc(OC)c(OC)c3)n2C)n(Cc2ccoc2)c1=O [drawing 583] | 
22 | > 3000 | 175 ± 44 | C#CCn1c(=O)c2c(nc(C#Cc3cccc(OC)c3)n2C)n(CC(O)CO)c1=O (centres unmarked) [drawing 569] | 
23 | > 3000 | 5.5 ± 1.4 | C#CCn1c(=O)c2c(nc(C#Cc3cccc(OC)c3)n2C)n(CCCO)c1=O [drawing 564] | 
24 |  |  | C#CCn1c(=O)c2c(nc(C#Cc3ccc(OC)c(OC)c3)n2C)n(CCCO)c1=O [drawing 625] | Catalepsy (rats): 0; Hypersensitivity (rats): 0; Motor Coordination (rats): −; Patterns Activity (rats): ++; Respiration (rats): +++; Stereotypies (rats): +; Temperature (rats): −; Tremor (rats): +
25 | > 1000 | 123 ± 62 | C#CCn1c(=O)c2c(nc(C#Cc3ccc(OC)c(OC)c3)n2C)n(CCCOC)c1=O [drawing 581] | 
26 | > 3000 | 36.4 ± 0.6 | C#CCn1c(=O)c2c(nc(C#Cc3ccc(OC)c(OC)c3)n2C)n(C)c1=O [drawing 554] | 
27 | > 1000 | 62.7 ± 10.7 | C#CCn1c(=O)c2c(nc(C#Cc3ccc(OC)c(OC)c3)n2C)n(CC(O)CO)c1=O (centres unmarked) [drawing 595] | 
28 | > 1000 | 17.7 ± 0.7 | C#CCn1c(=O)c2c(nc(C#Cc3ccc(OC)c(OC)c3)n2C)n(CC)c1=O [drawing 567] | 
29 | > 10000 | 423 ± 28 | C#CCn1c(=O)c2c(nc(C#Cc3cccc(Cl)c3)n2C)n(C)c1=O [drawing 556] | 
30 | > 1000 | 416 ± 44 | C#CCn1c(=O)c2c(nc(C#Cc3ccc(OC)c(OC)c3)n2C)n(Cc2cccs2)c1=O [drawing 589] | 
